Assay [1] deals with T1, 5-hydroxytryptamine receptor 2C (Homo sapiens, UniProt P28335).
T1 sequence (P28335 whole entry): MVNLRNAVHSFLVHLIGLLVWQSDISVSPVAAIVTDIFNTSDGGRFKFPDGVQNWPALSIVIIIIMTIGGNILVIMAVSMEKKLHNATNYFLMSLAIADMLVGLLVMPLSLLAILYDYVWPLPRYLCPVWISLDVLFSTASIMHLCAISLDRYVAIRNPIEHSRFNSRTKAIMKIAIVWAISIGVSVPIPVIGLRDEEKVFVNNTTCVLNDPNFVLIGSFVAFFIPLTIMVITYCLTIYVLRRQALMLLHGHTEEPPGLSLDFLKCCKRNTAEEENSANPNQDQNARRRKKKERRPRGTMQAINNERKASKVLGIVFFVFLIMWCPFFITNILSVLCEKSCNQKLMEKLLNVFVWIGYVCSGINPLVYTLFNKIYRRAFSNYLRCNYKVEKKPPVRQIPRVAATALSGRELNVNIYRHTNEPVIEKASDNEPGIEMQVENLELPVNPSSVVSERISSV
Briefly: Binding affinity against 5-hydroxytryptamine 2C receptor using [125I]DOI radioligand.

Assay [2] concerns the target 5-hydroxytryptamine receptor 2A (Homo sapiens, UniProt P28223). Briefly: Binding affinity against 5-hydroxytryptamine 2A receptor using [125I]DOI radioligand.
The target in assay [3] is Serotonin 2 receptors; 5-HT2a & 5-HT2c (Homo sapiens) (UniProt P28223+P28335). Briefly: Selectivity ratio of binding affinity of 5-hydroxytryptamine 2A receptor to that of 5-hydroxytryptamine 2C receptor. The class given is protein assay.
Assay [4] deals with T2, 5-hydroxytryptamine receptor 2C (Homo sapiens) (UniProt P28335).
T2 sequence (whole entry): T1 sequence (P28335 whole entry)
Briefly: Intrinsic efficacy against 5-hydroxytryptamine 2C receptor.

Assay [5] deals with Mus musculus. Briefly: Ataxia (time on rotaing rod) in mice after administration (3 mg/kg) using standard Rotarod assay. The class given is functional. (In the rotarod test animals must keep their balance on a rotating rod.)
Assay [6] has as its system Mus musculus. The assay can be described thus: Anxiolytic activity (latency to fight) in mice after administration (30 mg/kg) using shock-induced aggression assay. In kind it is functional.
The subject of assay [7] is Mus musculus. The assay can be described thus: Anxiolytic activity (latency to fight) in mice after administration (3 mg/kg) using shock-induced aggression assay. The class given is functional.
Assay [8] deals with Mus musculus. The assay can be described thus: Ataxia (time on rotaing rod) in mice after administration (30 mg/kg) using standard Rotarod assay. In kind it is functional.
The target of assay [9] is T1, 5-hydroxytryptamine receptor 2C. Briefly: Binding affinity of compound towards 5-hydroxytryptamine 2C receptor.
In assay [10] the test system is Mus musculus. Briefly: Ataxia (time on rotaing rod) in mice after administration (0.3 mg/kg) using standard Rotarod assay. The class given is functional.
In assay [11] the test system is Mus musculus. Briefly: Anxiolytic activity (latency to fight) in mice after administration (0.3 mg/kg) using shock-induced aggression assay. The class given is functional.
In assay [12] the test system is Mus musculus. Briefly: Anxiolytic activity (latency to fight) in mice after administration (3.0 mg/kg) using shock-induced aggression assay. The class given is functional.

These results are taken from ChEMBL document CHEMBL1136110, “2,3,4,5-tetrahydro- and 2,3,4,5,11,11a-hexahydro-1H-[1,4]diazepino[1,7-a]indoles: new templates for 5-HT(2C) agonists” (Bioorg Med Chem Lett, 2003).

The Ki is a dissociation constant, usually derived from enzyme kinetics or from competition with a known ligand.

Serotonin 2 receptors; 5-HT2a & 5-HT2c (Homo sapiens), sequence (P28223 whole entry, looked up, one chain of several): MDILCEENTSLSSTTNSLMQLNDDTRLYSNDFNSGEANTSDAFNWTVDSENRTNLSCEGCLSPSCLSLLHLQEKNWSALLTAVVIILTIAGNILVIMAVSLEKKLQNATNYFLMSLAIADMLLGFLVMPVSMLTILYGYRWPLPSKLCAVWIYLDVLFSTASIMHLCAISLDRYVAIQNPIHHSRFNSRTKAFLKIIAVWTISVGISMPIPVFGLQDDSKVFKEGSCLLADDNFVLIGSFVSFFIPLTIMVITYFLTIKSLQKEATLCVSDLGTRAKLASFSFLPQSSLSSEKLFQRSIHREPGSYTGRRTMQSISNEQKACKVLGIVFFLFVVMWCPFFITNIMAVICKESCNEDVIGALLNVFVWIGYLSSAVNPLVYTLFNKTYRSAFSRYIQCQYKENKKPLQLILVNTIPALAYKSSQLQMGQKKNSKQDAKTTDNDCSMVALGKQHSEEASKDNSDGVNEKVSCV
5-hydroxytryptamine receptor 2A, sequence (P28223 whole entry): as the sequence (P28223 whole entry, looked up, one chain of several) above

On to `CCOc1ccccc1-c1cc(Cl)cc2c1N1CCNCCC1C2` (stereo in doubt) [listing 1 of 2 here], for which the inhibition constant (Ki) in assay [1] worked out at 0.178 µM; in assay [2], 0.354 µM.

Turning to `N#Cc1c2n(c3ccccc13)CCNCC2`, the Ki in [1] was found to be 0.085 µM; in assay [2], 0.083 µM. Besides, the Selectivity ratio in [3] was 1.

As for `Clc1ccccc1-c1cccc2c1N1CCNCCC1C2` (configuration not stated), the inhibition constant (Ki) amounted to 0.023 µM in assay [1] and 0.082 µM in [2]. In [3], the Selectivity ratio was found to be 3.57.

With `Cc1ccccc1-c1cccc2c1N1CCNCCC1C2` (stereo in doubt; (+)) [listing 1 of 2 here], the Selectivity ratio in assay [3] turned out to be 6.37.

`CCN1CCc2cc3ccccc3n2CC1`: the Intrinsic efficacy in assay [4] worked out at 66%. Moreover, the Ki in [1] amounted to 0.038 µM; in [2], 0.03 µM.

For `FC(F)(F)c1ccccc1-c1cccc2c1N1CCNCCC1C2` (single isomer, unassigned; (-)) [listing 1 of 2 here], the Selectivity ratio in [3] came out at 3.21.

For `Fc1ccccc1-c1cc(Cl)cc2c1N1CCNCCC1C2` (configuration not stated), the inhibitory constant (Ki) in [1] was 0.223 µM; in assay [2], 0.141 µM. In [3], the Selectivity ratio was 0.63.

In the case of `CN1CCc2cc3ccccc3n2CC1`, the Intrinsic efficacy in assay [4] is 49%. For the same compound, the Ki in assay [1] was 0.013 µM; in assay [2] it was 0.028 µM.

On to `FC(F)(F)c1ccccc1-c1cccc2c1N1CCNCCC1C2` (single isomer, unassigned; (-)) [listing 2 of 2 here], for which the results for the inhibition constant Ki in assay [1] and in assay [2] were 0.014 µM and 0.045 µM, respectively.

For `CCOc1ccccc1-c1cccc2c1N1CCNCCC1C2` (single isomer, unassigned; (+)) [listing 1 of 2 here], the Selectivity ratio in assay [3] was determined as 4.45.

In the case of `CCCN1CCc2cc3ccccc3n2CC1`, the inhibitory constant (Ki) was 0.064 µM in assay [1] and 0.056 µM in assay [2].

In the case of `NC(=O)C(=O)c1c2n(c3ccccc13)CCNCC2`, the figures for the Ki in [1] and in [2] were 0.136 µM and 0.316 µM, respectively. For the same compound, the Selectivity ratio in assay [3] was found to be 2.3.

Turning to `CCOc1ccccc1-c1cc(Cl)cc2c1N1CCNCCC1C2` (stereo in doubt; 22a), the inhibition constant (Ki) in assay [1] was found to be 0.054 µM; in assay [2], 0.218 µM.

Regarding `CCOc1ccccc1-c1cc(Cl)cc2cc3n(c12)CCNCC3`, the values for the Ki in [1] and in assay [2] were 0.112 µM and 0.032 µM, respectively.

For `CCOc1ccccc1-c1cc(Cl)cc2c1N1CCNCCC1C2` (stereo in doubt) [listing 2 of 2 here], in assay [3], the Selectivity ratio was 1.99.

On to `CCOc1ccccc1-c1cccc2c1N1CCNCCC1C2` (single isomer, unassigned; (+)) [listing 2 of 2 here], for which the figures for the inhibition constant (Ki) in [1] and in assay [2] were 0.103 µM and 0.458 µM, respectively.

Turning to `O=Cc1c2n(c3ccccc13)CCNCC2`, the Ki in assay [1] amounted to 0.012 µM; in assay [2], 0.029 µM. The Selectivity ratio in assay [3] worked out at 2.4.

On to `CCOc1ccccc1-c1cc(Cl)cc2c1N1CCNCCC1C2` (single isomer, unassigned; (+)) [listing 1 of 2 here], for which the Ki came out at 0.032 µM in assay [1] and 0.116 µM in [2].

As for `Cc1ccccc1-c1cccc2c1N1CCNCCC1C2` (stereo in doubt; (-)) [listing 1 of 2 here], the Ki in assay [1] stood at 0.039 µM; in assay [2], 0.136 µM.

As to `c1ccc2c(c1)cc1n2CCNCC1`, the Latency is 102 s in the assay on Mus musculus [5], 27 s in the assay on Mus musculus [6], 12.8 s with Mus musculus [7] and 87.6 s in the assay on Mus musculus [8]. In [4], this compound came in with an Intrinsic efficacy of 80%. In addition, the Ki in [1] stood at 0.0048 µM; in [2], 0.018 µM. Further, the Selectivity ratio in assay [3] came out at 3.8.

`CCOc1ccccc1-c1cc(Cl)cc2c1N1CCNCCC1C2` (single isomer, unassigned; (+)) [listing 2 of 2 here]: the Selectivity ratio in [3] came to 3.63.

With `Clc1cc2c(c(-c3ccccc3Cl)c1)N1CCNCCC1C2` (configuration not stated), the Ki in [1] turned out to be 0.057 µM; in [2] it was 0.102 µM. Besides, the Selectivity ratio in assay [3] turned out to be 1.79.

As for `Fc1ccc(-c2cc(Cl)cc3c2N2CCNCCC2C3)cc1` (configuration not stated), the Ki in assay [1] stood at 0.31 µM; in assay [2] it was 0.146 µM. The Selectivity ratio in assay [3] amounted to 0.47.

For `c1ccc2c(c1)CC1CCNCCN21` (configuration not stated), the results for the Ki in assay [1] and in [2] were 0.721 µM and 0.805 µM, respectively.

For `CCOc1ccccc1-c1cccc2c1N1CCNCCC1C2` (single isomer, unassigned; (-)) [listing 1 of 2 here], the inhibition constant Ki in [1] is 0.196 µM; in assay [2], 0.98 µM.

With `Cc1ccccc1-c1cc(Cl)cc2c1N1CCNCCC1C2` (configuration not stated), the figures for the inhibition constant Ki in assay [1] and in assay [2] were 0.043 µM and 0.088 µM, respectively. Moreover, the Selectivity ratio in assay [3] stood at 2.05.

Turning to `Clc1ccc(-c2cc(Cl)cc3c2N2CCNCCC2C3)c(Cl)c1` (configuration not stated), the Ki turned out to be 0.386 µM in assay [1] and 0.426 µM in assay [2]. Moreover, in assay [3], the Selectivity ratio is 1.1.

Take `CCOc1ccccc1-c1ccc2c(c1)CC1CCNCCN21` (configuration not stated): the inhibitory constant (Ki) in assay [1] is 4.81 µM; in [2], above 10 µM.

Regarding `Cn1c2c(c3ccccc31)CCNCC2` [PNU-22394], the Intrinsic efficacy in assay [4] came to 83%. For the same compound, the inhibition constant Ki in assay [1] and in assay [2] was 0.019 µM each time.

`Cc1c2n(c3ccccc13)CCNCC2`: the Ki in assay [1] stood at 0.0068 µM; in assay [2], 0.012 µM. Besides, in assay [3], the Selectivity ratio amounted to 1.8.

For `FC(F)(F)c1ccccc1-c1cccc2c1N1CCNCCC1C2` (single isomer, unassigned; (+)) [listing 1 of 2 here], the inhibition constant (Ki) in assay [1] was 0.059 µM; in assay [2], 0.107 µM.

Consider `Clc1c2n(c3ccccc13)CCNCC2`, for which the Ki amounted to 0.0047 µM in [1] and 0.0065 µM in assay [2]. Moreover, the Selectivity ratio in assay [3] amounted to 1.4.

For the compound `Cc1ccccc1-c1cccc2c1N1CCNCCC1C2` (stereo in doubt; (+)) [listing 2 of 2 here], the Ki was 0.03 µM in assay [1] and 0.191 µM in assay [2].

In turn, `c1ccc2c3c([nH]c2c1)CCNCC3` had an Intrinsic efficacy in assay [4] of 66%. The figures for the Ki in assay [1] and in assay [2] were 0.0061 µM and 0.01 µM, respectively.

For `CCOc1ccc(-c2cc(Cl)cc3c2N2CCNCCC2C3)cc1` (configuration not stated), the values for the Ki in assay [1] and in assay [2] were 0.265 µM and 0.182 µM, respectively. The Selectivity ratio in [3] was found to be 0.69.

With `COc1ccc(Cl)cc1-c1cc(Cl)cc2c1N1CCNCCC1C2` (configuration not stated), the figures for the inhibitory constant (Ki) in [1] and in assay [2] were 0.793 µM and 0.756 µM, respectively. For the same compound, the Selectivity ratio in assay [3] was 0.95.

In turn, `C[C@H](N)Cn1ccc2ccc(F)cc21` returned a Ki in [9] of 0.004 µM.

The compound `c1cc2c3c(c1)c1c(n3CCO2)CCNCC1` displayed an Intrinsic efficacy in [4] of 105%. Further, the figures for the Ki in [1] and in assay [2] were 0.0043 µM and 0.0041 µM, respectively.

Turning to `CCOc1ccccc1-c1cccc2c1N1CCNCCC1C2` (single isomer, unassigned; (-)) [listing 2 of 2 here], the Selectivity ratio in [3] is 5.

Regarding `Cc1nnc2n1-c1ccc(Cl)cc1C(c1ccccc1)=NC2` [ALPRAZOLAM], the Latency was determined as 74.2 s in the assay with Mus musculus [10], 14.5 s in the assay on Mus musculus [5], 11.9 s in the assay on Mus musculus [11] and 35.2 s in the assay with Mus musculus [12].

Turning to `CCOc1cccc(-c2cc(Cl)cc3c2N2CCNCCC2C3)c1` (configuration not stated), the inhibition constant (Ki) in [1] came to 0.472 µM; in assay [2] it was 0.233 µM. In [3], the Selectivity ratio is 0.49.

As for `NC(=O)c1c2n(c3ccccc13)CCNCC2`, the inhibitory constant (Ki) worked out at 0.074 µM in assay [1] and 0.046 µM in assay [2]. In addition, the Selectivity ratio in [3] turned out to be 0.6.

Turning to `Clc1ccc(Cl)c(-c2cc(Cl)cc3c2N2CCNCCC2C3)c1` (configuration not stated), the results for the Ki in assay [1] and in assay [2] were 0.16 µM and 0.07 µM, respectively. The Selectivity ratio in assay [3] is 0.44.

Take `CCOc1ccccc1-c1cccc2c1N1CCNCCC1C2` (stereo in doubt; 20a): the Ki in assay [1] came to 0.11 µM; in assay [2] it was 0.44 µM.

As to `Cc1ccccc1-c1cccc2c1N1CCNCCC1C2` (stereo in doubt; (-)) [listing 2 of 2 here], the Selectivity ratio in assay [3] is 3.45.

For the compound `O=C(c1c2n(c3ccccc13)CCNCC2)C(F)(F)F`, the Ki in assay [1] was 0.054 µM; in assay [2], 0.04 µM. In addition, the Selectivity ratio in [3] came to 0.7.

Consider `CCOc1ccccc1-c1ccc2c(c1)N1CCNCCC1C2` (configuration not stated), for which the figures for the Ki in [1] and in assay [2] were 0.932 µM and 1.58 µM, respectively.

Take `FC(F)(F)c1ccccc1-c1cccc2c1N1CCNCCC1C2` (single isomer, unassigned; (+)) [listing 2 of 2 here]: in assay [3], the Selectivity ratio turned out to be 1.81.
